Test results published in patent US20230399324A1, “AGENTS FOR TREATING DISORDERS INVOLVING RYANODINE RECEPTORS” (ARMGO Pharma, Inc., priority 2020, published 2023).
Values joined by “and” are separate entries in the source; they are usually repeats but may differ in a detail not shown here. Equal values may be shown once. “Also recorded” adds a separate entry of the source. Read-outs that look alike come from different tables or passages of the source. Each block holds one molecule with its values, some of them ahead of it.

Experiments:
[1] = tested on: cardiomyocytes isolated from mouse heart; test: Inhibition of unstimulated calcium release events in cardiomyocytes (isoproterenol-induced); type: cell-based, C57BL/6 mice; conditions: Cardiomyocyte, 10 μM compound, isoproterenol 1 uM, percent inhibition of controls B vs A
Method: Compounds of the disclosure were evaluated for an effect on isoproterenol-induced inhibition of unstimulated calcium release events in cardiomyocytes isolated from mouse heart.
Adult cardiomyocytes are isolated from female, 28-32 grams C57BL/6 mice using a perfusion solution containing Liberase TH (Sigma Aldrich, #05-401-151001). After isolation, Ca^2+ is reintroduced in 5 steps at 4 min intervals. Then cells are plating (Time Cero) with a density of 5000-7000 rod cells in 100 μl of Cardiomyocyte Culture Medium (MEM, Invitrogen, #11575-032) containing Blebbistatin and compound treatment at various concentrations (0.01 to 10 uM). After 1 hrs of compound treatment cells are treated with Isoproterenol (1 uM). After 2 hrs of compound treatment cells are loaded with a Ca^2+ indicator (Fluo-4-AM, Invitrogen #F14202). After 3 hrs of compound treatment MEM is quickly but gently removed and the cells re-suspended in recording solution (Ca^2+ 2 mM, Isoproterenol 1 uM) for field stimulations using custom-designed electrodes. Cells are stimulated for 20 seconds at 0.5 Hz, then for 5 seconds at 5 Hz.
One Study=3 experiments. One experiment=1 mouse. Each experiment has 3 controls in triplicate: • A) Ca^2+ • B) Ca^2++Isoproterenol • C) Ca^2++Isoproterenol+Control Compound.
The first step in the analysis is to determine the number of responders based on four conditions. Responders are then analyzed to determine the number of unstimulated calcium release events, which are peaks of sufficient intensity, measured in the post-5 Hz stimulation period. Effect of test compounds (Ca^2++Isoproterenol+Test Compound in triplicate) are expressed as a percent inhibition of the controls B vs A.
All compounds were tested at 10 μM.

RyR2 [2] = biological target: T1, RyR2 (Homo sapiens, UniProt Q92736); test: biochemical
Target sequence in this assay (Q92736 whole entry): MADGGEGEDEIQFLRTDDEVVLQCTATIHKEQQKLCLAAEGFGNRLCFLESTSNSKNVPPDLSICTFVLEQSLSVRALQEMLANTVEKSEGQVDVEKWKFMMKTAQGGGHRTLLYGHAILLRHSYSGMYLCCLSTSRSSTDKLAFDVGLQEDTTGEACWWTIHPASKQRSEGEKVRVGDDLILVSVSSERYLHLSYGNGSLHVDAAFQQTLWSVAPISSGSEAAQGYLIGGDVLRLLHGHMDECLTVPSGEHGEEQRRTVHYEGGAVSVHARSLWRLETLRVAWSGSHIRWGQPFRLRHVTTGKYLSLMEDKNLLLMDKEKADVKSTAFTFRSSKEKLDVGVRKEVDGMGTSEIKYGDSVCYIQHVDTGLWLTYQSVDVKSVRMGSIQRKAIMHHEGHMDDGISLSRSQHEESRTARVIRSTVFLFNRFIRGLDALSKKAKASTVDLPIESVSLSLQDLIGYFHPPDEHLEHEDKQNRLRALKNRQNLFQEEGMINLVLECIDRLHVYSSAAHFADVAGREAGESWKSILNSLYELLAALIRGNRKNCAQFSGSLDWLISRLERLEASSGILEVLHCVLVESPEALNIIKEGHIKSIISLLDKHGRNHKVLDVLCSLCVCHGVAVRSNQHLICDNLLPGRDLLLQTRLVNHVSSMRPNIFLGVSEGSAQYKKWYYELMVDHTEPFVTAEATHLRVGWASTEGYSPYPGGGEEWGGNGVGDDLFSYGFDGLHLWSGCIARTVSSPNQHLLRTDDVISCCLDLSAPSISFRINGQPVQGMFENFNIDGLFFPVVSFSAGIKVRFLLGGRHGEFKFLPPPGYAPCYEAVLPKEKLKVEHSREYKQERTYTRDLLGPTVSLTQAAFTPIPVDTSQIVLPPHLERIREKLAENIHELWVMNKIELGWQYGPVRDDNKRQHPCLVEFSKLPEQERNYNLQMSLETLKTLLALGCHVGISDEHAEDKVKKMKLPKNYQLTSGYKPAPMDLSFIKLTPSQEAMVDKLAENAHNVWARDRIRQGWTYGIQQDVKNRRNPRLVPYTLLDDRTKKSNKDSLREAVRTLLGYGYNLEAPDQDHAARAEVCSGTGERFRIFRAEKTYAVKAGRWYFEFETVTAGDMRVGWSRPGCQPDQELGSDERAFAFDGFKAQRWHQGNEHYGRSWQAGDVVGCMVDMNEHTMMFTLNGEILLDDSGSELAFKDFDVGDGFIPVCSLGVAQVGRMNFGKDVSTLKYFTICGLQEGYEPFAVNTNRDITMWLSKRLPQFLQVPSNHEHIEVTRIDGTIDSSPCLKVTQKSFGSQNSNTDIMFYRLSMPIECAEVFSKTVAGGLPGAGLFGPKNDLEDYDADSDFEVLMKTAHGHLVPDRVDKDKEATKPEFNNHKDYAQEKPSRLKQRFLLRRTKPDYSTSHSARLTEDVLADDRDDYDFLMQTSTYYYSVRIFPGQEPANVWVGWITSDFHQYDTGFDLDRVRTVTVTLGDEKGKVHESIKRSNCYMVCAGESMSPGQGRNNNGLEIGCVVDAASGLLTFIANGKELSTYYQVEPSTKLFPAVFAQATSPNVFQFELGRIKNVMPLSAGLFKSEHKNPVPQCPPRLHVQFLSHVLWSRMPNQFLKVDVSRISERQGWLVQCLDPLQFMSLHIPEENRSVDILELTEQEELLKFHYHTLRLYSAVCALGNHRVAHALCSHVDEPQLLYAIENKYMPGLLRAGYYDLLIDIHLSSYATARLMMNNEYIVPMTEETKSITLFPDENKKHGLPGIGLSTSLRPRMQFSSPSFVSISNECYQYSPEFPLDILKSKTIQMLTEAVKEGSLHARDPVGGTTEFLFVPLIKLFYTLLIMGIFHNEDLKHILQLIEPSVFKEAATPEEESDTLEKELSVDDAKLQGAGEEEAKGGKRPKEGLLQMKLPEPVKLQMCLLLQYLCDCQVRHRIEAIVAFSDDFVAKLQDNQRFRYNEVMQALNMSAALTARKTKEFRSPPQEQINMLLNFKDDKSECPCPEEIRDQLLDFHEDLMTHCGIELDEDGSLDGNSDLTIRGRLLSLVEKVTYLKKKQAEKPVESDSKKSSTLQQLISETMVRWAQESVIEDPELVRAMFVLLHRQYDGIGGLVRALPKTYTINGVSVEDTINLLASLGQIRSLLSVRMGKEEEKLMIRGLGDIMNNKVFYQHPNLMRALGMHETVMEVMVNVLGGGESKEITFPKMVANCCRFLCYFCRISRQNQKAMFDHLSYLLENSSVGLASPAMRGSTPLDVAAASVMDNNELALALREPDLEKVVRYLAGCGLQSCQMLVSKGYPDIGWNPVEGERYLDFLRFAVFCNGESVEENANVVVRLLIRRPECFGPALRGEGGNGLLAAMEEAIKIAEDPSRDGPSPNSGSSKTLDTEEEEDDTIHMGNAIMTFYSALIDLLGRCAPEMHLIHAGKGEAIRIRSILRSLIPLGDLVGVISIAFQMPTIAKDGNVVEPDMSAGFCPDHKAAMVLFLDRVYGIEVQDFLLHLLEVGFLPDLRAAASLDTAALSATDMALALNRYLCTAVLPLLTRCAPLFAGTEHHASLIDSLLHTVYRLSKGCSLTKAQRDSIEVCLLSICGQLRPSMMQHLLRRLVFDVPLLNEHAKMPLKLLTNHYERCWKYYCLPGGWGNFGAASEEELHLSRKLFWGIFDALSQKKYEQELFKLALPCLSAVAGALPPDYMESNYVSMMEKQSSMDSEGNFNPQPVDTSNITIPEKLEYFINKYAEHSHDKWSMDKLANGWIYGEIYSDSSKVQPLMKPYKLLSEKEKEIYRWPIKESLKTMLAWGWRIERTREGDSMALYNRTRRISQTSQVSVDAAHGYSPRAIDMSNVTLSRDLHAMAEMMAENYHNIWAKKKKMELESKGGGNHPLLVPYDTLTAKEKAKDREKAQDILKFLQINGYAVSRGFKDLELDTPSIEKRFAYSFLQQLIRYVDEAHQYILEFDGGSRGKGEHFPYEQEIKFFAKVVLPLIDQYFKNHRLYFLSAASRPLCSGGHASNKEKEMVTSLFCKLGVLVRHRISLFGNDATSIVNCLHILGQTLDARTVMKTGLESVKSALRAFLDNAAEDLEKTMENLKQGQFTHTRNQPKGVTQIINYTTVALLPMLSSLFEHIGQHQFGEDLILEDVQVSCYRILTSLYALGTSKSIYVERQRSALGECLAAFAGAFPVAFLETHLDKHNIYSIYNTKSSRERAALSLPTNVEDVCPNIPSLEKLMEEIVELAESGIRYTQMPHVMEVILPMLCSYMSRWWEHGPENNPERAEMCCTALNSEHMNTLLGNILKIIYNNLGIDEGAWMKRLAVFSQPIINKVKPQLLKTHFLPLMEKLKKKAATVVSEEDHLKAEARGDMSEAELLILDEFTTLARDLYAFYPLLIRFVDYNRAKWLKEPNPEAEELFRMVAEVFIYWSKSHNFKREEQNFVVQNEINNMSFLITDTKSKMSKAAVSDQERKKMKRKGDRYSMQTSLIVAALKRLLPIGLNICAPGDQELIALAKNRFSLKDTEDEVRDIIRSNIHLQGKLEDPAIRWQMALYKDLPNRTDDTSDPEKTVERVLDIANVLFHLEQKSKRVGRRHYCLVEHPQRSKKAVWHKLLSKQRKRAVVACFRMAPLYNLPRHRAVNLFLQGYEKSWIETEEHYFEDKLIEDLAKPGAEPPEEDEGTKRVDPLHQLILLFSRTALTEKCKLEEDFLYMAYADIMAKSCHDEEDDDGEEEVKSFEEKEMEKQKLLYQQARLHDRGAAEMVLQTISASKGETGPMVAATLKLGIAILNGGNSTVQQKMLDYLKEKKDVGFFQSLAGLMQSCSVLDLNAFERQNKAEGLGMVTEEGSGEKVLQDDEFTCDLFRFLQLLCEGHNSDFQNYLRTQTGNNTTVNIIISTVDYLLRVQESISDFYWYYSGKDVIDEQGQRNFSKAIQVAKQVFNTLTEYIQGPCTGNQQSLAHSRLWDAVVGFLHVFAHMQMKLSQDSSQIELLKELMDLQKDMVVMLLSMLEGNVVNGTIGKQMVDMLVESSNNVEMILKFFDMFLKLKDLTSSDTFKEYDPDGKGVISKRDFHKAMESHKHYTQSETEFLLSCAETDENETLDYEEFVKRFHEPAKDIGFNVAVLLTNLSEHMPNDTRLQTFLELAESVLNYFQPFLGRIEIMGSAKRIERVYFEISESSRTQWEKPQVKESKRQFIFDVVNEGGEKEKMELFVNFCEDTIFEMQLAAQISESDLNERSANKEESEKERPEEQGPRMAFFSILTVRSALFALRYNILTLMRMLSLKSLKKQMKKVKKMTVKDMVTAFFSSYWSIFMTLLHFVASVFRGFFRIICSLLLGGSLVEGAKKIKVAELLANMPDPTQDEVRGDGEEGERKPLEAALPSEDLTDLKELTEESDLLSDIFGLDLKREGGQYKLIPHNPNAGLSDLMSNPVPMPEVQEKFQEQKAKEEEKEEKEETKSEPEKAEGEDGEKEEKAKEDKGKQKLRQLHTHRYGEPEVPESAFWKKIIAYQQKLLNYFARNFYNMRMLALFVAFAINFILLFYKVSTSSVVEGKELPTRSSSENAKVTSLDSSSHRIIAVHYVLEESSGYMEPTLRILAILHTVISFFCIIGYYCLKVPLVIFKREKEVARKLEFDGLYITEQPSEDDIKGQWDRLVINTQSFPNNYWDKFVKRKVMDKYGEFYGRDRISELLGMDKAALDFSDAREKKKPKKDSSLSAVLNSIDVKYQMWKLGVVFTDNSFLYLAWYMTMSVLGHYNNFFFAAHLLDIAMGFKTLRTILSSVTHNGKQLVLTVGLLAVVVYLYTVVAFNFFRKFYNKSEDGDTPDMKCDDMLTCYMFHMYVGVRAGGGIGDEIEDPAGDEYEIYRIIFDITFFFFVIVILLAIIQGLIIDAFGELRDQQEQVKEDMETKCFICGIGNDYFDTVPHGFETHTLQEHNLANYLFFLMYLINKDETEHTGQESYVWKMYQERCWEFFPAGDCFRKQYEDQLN
Target sequence in this assay (P68106 whole entry, further chain): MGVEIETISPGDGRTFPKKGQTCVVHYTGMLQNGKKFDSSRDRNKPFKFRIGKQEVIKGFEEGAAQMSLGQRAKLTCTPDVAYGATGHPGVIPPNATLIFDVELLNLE

[3] = Pharmacokinetics by intravenous (IV) dosing (tail vein); type: in vivo, rat
Method: Additional PK parameters were obtained using IV dosing to complement the oral PK data and to determine absolute oral bioavailability. Compounds were administered via tail vein injection and blood samples were obtained at 30 min, 1 h, 4 h and 12h. The drug concentration in plasma was determined via UPLC/MS.
(§1) The concentration results were used to estimate PK parameters (i.e. C0, T1/2, Vd, AUCinf) based on noncompartmental distribution and mono-exponential concentration decay. The half-life value thus obtained was also used to estimate the AUCinf for the PO dosing.

RyR2 [4] = biological target: T1, RyR2; test: 35S-labelled Calstabin2 binding to human HD cortex microsomes, dose curve; conditions: FIG. 2
Target sequence in this assay (Q92736 whole entry): as the sequence (Q92736 whole entry) above
Target sequence in this assay (P68106 whole entry, further chain): as the sequence (P68106 whole entry, further chain) above

RyR = RyR mediated calcium leak from human HD cortex microsomes (Fluo-4, thapsigargin); type: biochemical; conditions: thapsigargin 3 μM, FIG. 3
Method: Human cortex Microsomes (5 μg/ml) were diluted into a 20 mM HEPES buffer (pH 7.2) containing 7 mM NaCl, 1.5 mM MgCl2, 120 mM K-gluconate, 5 mM K-phosphate, 8 mM K-phosphocreatine, 1 μM EGTA and 2 μM CaCl2) mixed with 3 μM Fluo-4 and added to multiple wells of a 96-well plate. Calcium (Ca^2+) loading of the microsomes was initiated by adding 1 mM ATP. After Ca^2+ uptake, 3 μM thapsigargin was added. (A)—Representative traces of Ca^2+ leak from Human cortex microsomes induced by addition of thapsigargin (3 μM). (B)—Ca^2+ leak was calculated as the percent increase in signal after addition of thapsigargin. Data (mean±SEM) analysis was performed by Student t-test (n=2 for each group) **P<0.01.

[5] = Morning and evening plasma and brain exposure after 1-week dosing in drinking water; type: in vivo; conditions: rat; for Brain / Plasma: 1 week
RyR2 [6] = biological target: T1, RyR2; test: Calstabin2 binding to RyR2 immunoprecipitated from human HD cortex lysate (immunoblot); conditions: FIG. 1
Method: Brain microsomes were prepared from human hippocampus and cortex samples taken from HD patients. Control samples were from patients that were negative in neuropathological diagnoses.
RyR2 was immunoprecipitated from Cortex lysate (+/−various concentrations of Compound 2) with an RyR2 specific antibody (2 μg) in 0.5 ml of a modified RIPA buffer (50 mM Tris-HCl pH 7.2 0.9% NaCl, 5.0 mM NaF, 1.0 mM Na3VO4, 1% Triton-X100, and protease inhibitors) and left overnight at 4° C. The immune complexes were incubated with protein A Sepharose beads at 4° C. for 1 h and the beads are washed three times with RIPA buffer. […] Immunoblots were developed using antibodies against RyR and Calstabin.

[7] = Oral bioavailability and pharmacokinetics in blood plasma after oral gavage; type: in vivo, Sprague-Dawley rats; conditions: Sprague-Dawley; for Cmax: po
Method: (§2) Analytical instrument: Waters Acquity Class H UPLC equipped with Waters SQ3100 mass detector.
1). Initial non-terminal assessment of compound oral bioavailability and pharmacokinetics in blood plasma.
Sprague-Dawley rats were dosed via oral gavage (20 mg/kg); blood samples were drawn at 30 min, 1 h, 4 h and 12 h and plasma concentrations were determined via UPLC/MS. The 12-hour exposure (AUC12, Table 2) was determined via trapezoidal integration of the observed concentrations.
as §1

[8] = Brain exposure: brain and plasma concentrations 4 h after oral administration; type: in vivo; conditions: Sprague-Dawley, rat, PO 20 mg/kg; for concentration at 4 h: terminal sampling
Method: as §2
Brain and plasma concentrations 4 h after oral administration (corresponding to Tmax in the first experiment) were determined via UPLC/MS, and the corresponding brain-to-plasma ratio values were calculated.

[9] = 5 mg/kg/day in drinking water, 7:00AM, 5 mg/kg/day
[10] = 5 mg/kg/day in drinking water, 7:00PM, 5 mg/kg/day
[11] = 20 mg/kg/day in drinking water, 7:00AM, 20 mg/kg/day
[12] = 20 mg/kg/day in drinking water, 7:00PM, 20 mg/kg/day

Compound: O=C(N1CCNCC1)N1CCSc2ccc(OC(F)(F)F)cc2C1 [Compound 4, piperazin-1-yl(7-(trifluoromethoxy)-2,3-dihydrobenzo[f][1,4]thiazepin-4(5H)-yl)methanone]
inhibition at 10 µM [1]: 142%

Compound: O=C(N1CCNCC1)N1CCSc2cccc(I)c2C1 [Compound 10, (6-iodo-2,3-dihydrobenzo[f][1,4]thiazepin-4(5H)-yl)(piperazin-1-yl)methanone]
inhibition at 10 µM [1]: 74%

Compound: O=C(N1CCNCC1)N1CCSc2cc(C(F)(F)F)ccc2C1 [Compound 1, piperazin-1-yl(8-(trifluoromethyl)-2,3-dihydrobenzo[f][1,4]thiazepin-4(5H)-yl)methanone]
inhibition at 10 µM [1]: 95 to 96%

EC50 (RyR2 [2]): 0.1 µM
Vd ([3]; plasma, rat, IV bolus 2 mg/kg): 10.9 L/kg
half-life ([3]; plasma, rat, IV bolus 2 mg/kg, read-out: T½ (converted)): 2.77 h
AUC(0-inf) ([3]; rat plasma, IV bolus 2 mg/kg): 0.736 µg·h/mL
concentration at 30 min ([3]; rat plasma, IV bolus 2 mg/kg, 30 min, read-out: C 1st time (30 min)): 0.18 µg/mL
F % PO/IV bolus ([3]; rat, PO 20 mg/kg vs IV bolus 2 mg/kg): 37%
Brain [5, 9]: 0.50 ± 0.12 μg/g and 1.44 ± 0.36 μM
Plasma [5, 9]: 0.09 ± 0.03 μg/mL and 0.25 ± 0.08 μM
Brain [5, 10]: 0.12 ± 0.08 μg/g and 0.36 ± 0.22 μM
Plasma [5, 10]: 0.02 ± 0.01 μg/mL and 0.07 ± 0.02 μM
Brain [5, 11]: 3.05 ± 0.71 μg/g and 8.82 ± 2.05 μM
Plasma [5, 11]: 0.42 ± 0.02 μg/mL and 1.22 ± 0.05 μM
Brain [5, 12]: 1.20 ± 0.96 μg/g and 3.48 ± 2.79 μM
Plasma [5, 12]: 0.20 ± 0.12 μg/mL and 0.58 ± 0.36 μM
brain exposure after a week of dosing ([5]; 1 week in drinking water): has brain exposure
AUC(0-inf) ([7]; rat, plasma, oral, 20 mg/kg): 2.73 µg·h/mL
Cmax ([7]; rat, plasma, 20 mg/kg, rat plasma, PO 20 mg/kg, Table 4 summary, read-out: Cmax C4 h): 0.32 µg/mL
Cmax ([7]; rat, plasma, 20 mg/kg, rat plasma, PO 20 mg/kg, read-out: Cmax): 210 ng/mL and 610 nM
Tmax ([7]; rat plasma, PO 20 mg/kg): 4 h
AUC(0-t) ([7]; rat plasma, PO 20 mg/kg, 12 h, trapezoidal, read-out: AUCt (12 h)): 2090 ng·h/mL and 6.06 µM·h
concentration at 4 h ([8]; brain, read-out: Brain C4 h): 2160 ng/g and 6.25 µM
Kp at 4 h ([8]; brain/plasma): 5.1
concentration at 4 h ([8]; plasma, read-out: Plasma C4 h): 420 ng/mL and 1.22 µM
Compound: O=C(N1CCNCC1)N1CCSc2ccc(C(F)(F)F)cc2C1 [Compound 2, piperazin-1-yl(7-(trifluoromethyl)-2,3-dihydrobenzo[f][1,4]thiazepin-4(5H)-yl) methanone]
Calstabin2 binding to HD microsomes, concentration dependence (RyR2 [4]): increase Calstabin2 binding to HD microsomes in a concentration dependent manner
inhibition at 10 µM [1]: 86 to 94%
calcium leak from HD microsomes (RyR): decreases calcium leak from HD microsomes
plasma and tissue exposure levels, morning versus evening ([5]; 1 week in drinking water): higher in the morning than in the evening
Calstabin2/RyR2 binding in HD brain microsome lysates (RyR2 [6]): improves Calstabin2/RyR2 binding; also recorded: improves Calstabin rebinding to RyR2

Compound: O=C(N1CCNCC1)N1CCSc2cccc(Cl)c2C1 [Compound 7, (6-chloro-2,3-dihydrobenzo[f][1,4]thiazepin-4(5H)-yl)(piperazin-1-yl)methanone]
inhibition at 10 µM [1]: 89%

Compound: O=C(N1CCNCC1)N1CCSc2c(cccc2C(F)(F)F)C1 [Compound 3, piperazin-1-yl(9-(trifluoromethyl)-2,3-dihydrobenzo[f][1,4]thiazepin-4(5H)-yl)methanone]
inhibition at 10 µM [1]: 85%

Compound: O=C(N1CCNCC1)N1CCSc2cccc(C(F)(F)F)c2C1 [Compound 5, piperazin-1-yl(6-(trifluoromethyl)-2,3-dihydrobenzo[f][1,4]thiazepin-4(5H)-yl)methanone]
inhibition at 10 µM [1]: 92%

Compound: O=C(N1CCNCC1)N1CCSc2cc(F)c(F)cc2C1 [Compound 6, (7,8-difluoro-2,3-dihydrobenzo[f][1,4]thiazepin-4(5H)-yl)(piperazin-1-yl)methanone]
inhibition at 10 µM [1]: 71%

Compound: O=C(N1CCNCC1)N1CCSc2cccc(Br)c2C1 [Compound 9, (6-bromo-2,3-dihydrobenzo[f][1,4]thiazepin-4(5H)-yl)(piperazin-1-yl)methanone]
inhibition at 10 µM [1]: 89%

Compound: COc1ccc2c(c1)CN(C)CCS2 [Compound S107, reference compound]
Calstabin2 binding to HD microsomes, concentration dependence (RyR2 [4]): increase Calstabin2 binding to HD microsomes in a concentration dependent manner

Compound: O=C(N1CCNCC1)N1CCSc2cccc(OC(F)(F)F)c2C1 [Compound 8, piperazin-1-yl(6-(trifluoromethoxy)-2,3-dihydrobenzo[f][1,4]thiazepin-4(5H)-yl)methanone]
inhibition at 10 µM [1]: 80%
